Counter-ions that a name gives are not always drawn.
What was measured:
[1] = system: Jurkat Leukemia cell line; test: Jurkat cell viability (MTT assay); format: cell-based; settings: Homo sapiens; Jurkat cell line, 72 h, MTT
Protocol: Jurkat cell culturing and cell viability studies. Jurkat cells are nonadherent cells, and they were cultured in an RPMI-1640 media (supplemented with 10% FBS (v/v) and 1% antibiotic solution (v/v) of penicillin/streptomycin) in non-tissue-culture treated 25 mL flasks according to the known protocol provided by the supplier ATCC. The cell passaging was done at 70% confluency by taking 3 mL of cells and diluting to 25 mL of fresh media. The cells were incubated at 37° C. in 5% CO2 atmosphere.
Jurkat cytotoxicity of DefNEtTrp (6), Def (5), NEtTrp (4), Trp, and 1:1 combinations of 5 with 4 and 5 with Trp was determined by the colorimetric 3-(4,5-dimethylthiazol-2-yl)-2,5-diphenyltetrazolium bromide (MTT) assay. Incubation conditions were the same in all the steps. Cells in 80-95% confluence (grown in standard circular tissue culture dishes, BD Falcon) were separately seeded into 96-well plates using phenol red free RPMI-1640 media (containing 10% FBS and 1% streptomycin/penicillin) in a volume of 50 μL at a concentration of 5.0×10^5 cells/mL. Following this procedure, the Jurkat cells were treated immediately. Stock solution of the compounds were first prepared in DMF at 5 mM and stored at 4° C. for up to 30 days. The stock solution was diluted to specific concentrations using 1×PBS (0.2-20 μM) while DMF was maintained at 1% (v/v). 50 μL of diluted solutions were added in all cell containing wells with at least six replicates per concentration (n=6). The final percentage (v/v) of DMF was 0.5%. The cells were also co-treated with 5 with 4 and 5 with Trp in a 1:1 mole equivalent ratio over the same concentration range but as a combined concentration of both compounds. Control wells in the plates consisted of one lane of cells treated with media alone including 0.5% DMF (v/v) as the measure of 100% viable cell growth in the media. Another control lane consisted of no cells with media including 0.5% DMF (v/v) as a measure of the background with no viable cells. The plates were incubated for 72 h. At 4 h before completion of the incubation time, 25 μL of MTT solution (sterile filtered 5 mg/mL solution, dissolved in 1×PBS buffer) was added to each well. During addition of the MTT solution, the plates were protected from light. After completion a 50 μL portion of 4% (w/v) SDS solution (sterile filtered, dissolved in Tris buffer 1M, pH=10) was added to each well and incubated to solubilize formazan crystals after MTT cell labeling. The absorbance of each well was measured at 570 nm (absorbance of the formazan product at pH >10.0) and 800 nm (as a background correction) using a Tecan plate reader. The absorbance of all wells was compared to the absorbance of the untreated cells with the MTT set as the 100% viable cell standard and the absorbance of the no cell control set as the 0% viable cell standard. Nonlinear regression in GraphPad Prism 8 was utilized to fit the growth curve over the various drug concentrations to determine the half-maximal inhibitory concentration (IC50). All cell viability experiments, including non-Jurkat cells, were repeated at least once for biological duplicates. To confirm cell death at the higher concentration dosages of the compounds and combinations, dead cells were blue stained with trypan blue and visually inspected under the microscope.

[2] = system: red blood cells; test: CO-ADD hemolysis assay; format: cell-based, human; settings: for hemolysis behavior relative to DefNEtTrp (minor hemolysis): human red blood cells
Protocol: CO-ADD hemolysis assay. Dry compounds ranging from 1-2 mg were delivered to the CO-ADD. The compounds were solubilized to a stock concentration of 10 mg/mL in DMSO. Samples were serially diluted 1:2 fold in water to final testing concentrations of […] while keeping the final DMSO concentration to a maximum of 0.32% (v/v). Each sample concentration was prepared in polypropylene 384-well plates (Corning 3657) for hemolysis assays, all in two duplicate plates (n=2). All sample preparation was conducted using liquid handling robots. Human whole blood (Australian Red Cross) was washed three times with three volumes of 0.9% NaCl (w/v) and resuspended in a concentration of […], determined by manual cell count in a Neubauer hemocytometer. Washed cells were added to the compound-containing plates for a final volume of 50 μL. After a 10 min shake on a plate shaker the plates were then incubated for 1 h at 37° C. After incubation, the plates were centrifuged at 1000 g for 10 min to pellet cells and debris, 25 μL of the supernatant was then transferred to reading plates (384 well, polystyrene plated (PS), Corning CLS3680), with hemolysis determined by measuring the supernatant absorbance at […] (OD405) using a Tecan M1000 Pro monochromator plate reader. HC10 and HC50 (concentration at 10% and 50% hemolysis, respectively) were calculated by curve fitting the inhibition values vs. log(concentration) using a sigmoidal dose-response function with variable fitting values for the top, bottom, and slope. The maximal percentage of hemolysis is reported as Dmax. Hemolysis samples are classified by HC10≤32 μg/mL. […] Melittin was used in 8 concentrations in 2-fold serial dilutions with 50 µg/mL being the highest concentration.

[3] = system: Jurkat cells; test: Apoptosis mechanistic cell viability study (Q-VD-OPh); format: cell-based, human; settings: 10 μM Q-VD-OPh pretreatment, 2 μM cisplatin, 72 h
Protocol: Apoptosis mechanistic cell viability study. Jurkat cells were seeded into 96-well plates, as indicated in the MTT assay described above. The cells were treated with 10 μM of the apoptosis inhibitor Q-VD-OPh (Q-V-O). Another group of cells were treated with media alone. After 1 h incubation, half of the cells supplemented with Q-V-O were treated with 2 μM DefNEtTrp or 2 μM cisplatin, as positive control, while the other half was treated with media alone. The final percentage of DMF was maintained at 0.5% (v/v). The MTT assay was performed with these samples (n=6). A student t-test was performed to evaluate the difference in the viability of cells treated with DefNEtTrp or cisplatin and supplemented with and without Q-V-O.

Row | SMILES | IC50 [1] [nM] | hemolysis behavior relative to DefNEtTrp (minor hemolysis) [2] | HC10 and HC50 values ([2]; positive hemolytic control) | antiproliferative activity when cells are pretreated with Q-VD-OPh [3]
1 | O=C(O)c1ccc(-n2nc(-c3ccccc3O)nc2-c2ccccc2O)cc1 [Def, deferasirox, reference compound] | 2600 ± 150 | comparable | – | –
2 | CC[C@H](C)[C@H](NC(=O)CN)C(=O)NCC(=O)N[C@@H](C)C(=O)N[C@H](C(=O)N[C@@H](CC(C)C)C(=O)N[C@@H](CCCCN)C(=O)N[C@H](C(=O)N[C@@H](CC(C)C)C(=O)N[C@H](C(=O)N[C@H](C(=O)NCC(=O)N[C@@H](CC(C)C)C(=O)N1CCC[C@H]1C(=O)N[C@@H](C)C(=O)N[C@@H](CC(C)C)C(=O)N[C@H](C(=O)N[C@@H](CO)C(=O)N[C@@H](Cc1c[nH]c2ccccc12)C(=O)N[C@H](C(=O)N[C@@H](CCCCN)C(=O)N[C@@H](CCCNC(=N)N)C(=O)N[C@@H](CCCCN)C(=O)N[C@@H](CCCNC(=N)N)C(=O)N[C@@H](CCC(N)=O)C(=O)N[C@@H](CCC(N)=O)C(N)=O)[C@@H](C)CC)[C@@H](C)CC)[C@@H](C)O)[C@@H](C)O)C(C)C)C(C)C [Melittin] | – | – | within the expected range | –
3 | NCCNC(=S)N/N=C/c1ncccc1N [NEtTrp, nitrogen ethyl triapine dihydrochloride] | 5900 ± 290 | comparable | – | –
4 | NC(=S)NN=Cc1ncccc1N [Trp, 3-aminopyridine-2-carboxaldehyde-thiosemicarbazone, reference compound] | 1100 ± 40 | comparable | – | –
5 | N.N.[Cl][Pt][Cl] [cisplatin, reference compound] | – | – | – | less antiproliferative activity

Source: patent US20260055081A1, “Metal Chelator Compounds, Coordination Complexes, and Methods of Preparation and Use Thereof” (University of Puerto Rico, priority 2022, published 2026)
